Reference: the NIST ThermoML archive (doi:10.1021/je060271a)

Details: 283.15 K, Liquid, Vibrating tube method

CCCC(=O)OCC(COC(=O)CCC)(COC(=O)CCC)COC(=O)CCC [pentaerythritol tetrabutyrate]
Details | mass density [kg/m3]
26946 kPa | 1074.1
26974 kPa | 1074.2
26998 kPa | 1074.3
27022 kPa | 1074.2
27050 kPa | 1074.3
27074 kPa | 1074.2
27098 kPa | 1074.2
27122 kPa | 1074.3
27151 kPa | 1074.2
27174 kPa | 1074.3
27198 kPa | 1074.2
27228 kPa | 1074.3
27248 kPa | 1074.3
27267 kPa | 1074.4
27296 kPa | 1074.4
27330 kPa | 1074.3
27354 kPa | 1074.3
27384 kPa | 1074.5
27408 kPa | 1074.4
27433 kPa | 1074.5
27463 kPa | 1074.4
27488 kPa | 1074.4
27512 kPa | 1074.4
27542 kPa | 1074.4
27566 kPa | 1074.6
27592 kPa | 1074.5
27622 kPa | 1074.5
27646 kPa | 1074.5
27672 kPa | 1074.6
27701 kPa | 1074.7
27726 kPa | 1074.6
27752 kPa | 1074.6
27782 kPa | 1074.5
27808 kPa | 1074.6
27833 kPa | 1074.6
27863 kPa | 1074.6
27889 kPa | 1074.6
27915 kPa | 1074.7
27941 kPa | 1074.7
27972 kPa | 1074.8
27998 kPa | 1074.6
28024 kPa | 1074.7
28049 kPa | 1074.8
28080 kPa | 1074.8
28101 kPa | 1074.7
28127 kPa | 1074.7
28164 kPa | 1074.8
28190 kPa | 1074.8
28217 kPa | 1074.7
28249 kPa | 1074.7
28276 kPa | 1074.8
28303 kPa | 1074.9
28329 kPa | 1074.9
28356 kPa | 1075
28388 kPa | 1074.9
28415 kPa | 1074.9
28447 kPa | 1075
28474 kPa | 1075.1
28500 kPa | 1075
28527 kPa | 1075
28559 kPa | 1075.1
28586 kPa | 1075
28618 kPa | 1075.1
28646 kPa | 1075.1
28674 kPa | 1075.2
28706 kPa | 1075.1
28733 kPa | 1075
28760 kPa | 1075.2
28787 kPa | 1075.2
28820 kPa | 1075.2
28847 kPa | 1075.2
28881 kPa | 1075.2
28908 kPa | 1075.1
28936 kPa | 1075.1
28969 kPa | 1075.2
28985 kPa | 1075.3
28997 kPa | 1075.2
29011 kPa | 1075.2
29026 kPa | 1075.1
29043 kPa | 1075.2
29054 kPa | 1075.3
29088 kPa | 1075.3
29116 kPa | 1075.3
29146 kPa | 1075.2
29150 kPa | 1075.4
29179 kPa | 1075.3
29207 kPa | 1075.3
29240 kPa | 1075.3
29253 kPa | 1075.5
29268 kPa | 1075.4
29296 kPa | 1075.4
29322 kPa | 1075.4
29330 kPa | 1075.5
29357 kPa | 1075.4
29385 kPa | 1075.6
29417 kPa | 1075.4
29442 kPa | 1075.4
29443 kPa | 1075.6
29464 kPa | 1075.4
29471 kPa | 1075.6
29482 kPa | 1075.7
29505 kPa | 1075.5
29534 kPa | 1075.5
29557 kPa | 1075.5
29562 kPa | 1075.6
29590 kPa | 1075.5
29625 kPa | 1075.6
29628 kPa | 1075.6
29649 kPa | 1075.5
29655 kPa | 1075.6
29683 kPa | 1075.6
29711 kPa | 1075.5
29718 kPa | 1075.7
29748 kPa | 1075.7
29778 kPa | 1075.5
29786 kPa | 1075.7
29808 kPa | 1075.6
29843 kPa | 1075.7
29859 kPa | 1075.7
29872 kPa | 1075.7
29901 kPa | 1075.7
29931 kPa | 1075.8
29943 kPa | 1075.7
29966 kPa | 1075.7
29996 kPa | 1075.8
30016 kPa | 1075.8
30031 kPa | 1075.7
30034 kPa | 1075.7
30037 kPa | 1075.8
30045 kPa | 1075.9
30052 kPa | 1075.8
30061 kPa | 1075.8
30091 kPa | 1075.8
30121 kPa | 1075.8
30158 kPa | 1075.9
30189 kPa | 1075.9
30208 kPa | 1075.9
30219 kPa | 1075.9
30250 kPa | 1075.8
30282 kPa | 1076
30285 kPa | 1075.9
30316 kPa | 1076
30325 kPa | 1076
30346 kPa | 1075.9
30381 kPa | 1076
30411 kPa | 1075.9
